The values below come from patent US20260297106A1, “SPIROCYCLIC SUBSTITUTED OXOISOINDOLINYL PIPERIDINE-2,6-DIONE COMPOUND” (Bristol-Myers Squibb Company, priority 2023, published 2026).

Experiment [1] concerns the target T1, IKZF2 Helios (Homo sapiens, UniProt Q96SW2+Q9UKS7). The experiment can be described thus: Human Regulatory T Cell Degradation Assay (IKZF2 Helios). The format is cell-based. Particulars: human regulatory T cells, 20 hours; for Dmax: Regulatory T cell, 100% = no detectable protein remaining, read-out: IKZF2 Helios max % deg. observed; for DC50: concentration reducing protein level by 50% vs DMSO. Details: T cells were isolated from fresh healthy leukopaks; endogenous in cells; host or cells: FACS-sorted primary human CD4+ CD127low CD25+ Treg cells from healthy leukopaks. As for the experimental part: Cryopreserved human regulatory T cells were thawed in RPMI+10% FBS+20 ng/mL IL-2. After being spun at 1200 rpm for 5 mins, the cells were resuspended in RPMI+10% FBS+20 ng/ml and rested at 37° C. with 5% CO2 for 3 hours. The cells were then plated at 40,000 cells/well in 40 μL RPMI+10% FBS+20 ng/ml human IL~2 in a 384 well cell culture plate prior to using acoustic dispensing technology (ECHO 555) for adding compounds of interest. Cell cultures were incubated for 20 hours at 37° C. and 5% CO2. In order to facilitate analysis, cell cultures were spun down at 1200 rpm for 5 minutes and the supernatant was discarded using an EL406 plate washer. After washing three times with 70 μL PBS, cell pellets were resuspended in 50 μL of near IR viability staining solution (Life Technologies, Cat #L34975) and incubated for 30 minutes on ice protected from light. Cells were washed three times with 70 μL PBS+0.5% BSA using an EL406 plate washer. After shaking the plate to dislodge the cell pellet, cells were resuspended in 50 μL of Fixation Buffer (eBioScience FoxP3 buffer set 00-5523-00) for 60 minutes at room temperature. After centrifuging and discarding the supernatant, cells were permeabilized with 50 μL of permeabilization buffer (eBioScience FoxP3 buffer set 00-5523-00) for 10 minutes at room temperature. Following permeabilization, cells were spun down and the supernatant was replaced with 30 μL fluorescently labelled antibodies against the intracellular targets Helios (Helios-APC [BioLegend, Cat #137222, 1:50])]), Aiolos, and Ikaros Ix Permeabilization buffer and staining reactions were incubated for 1 hour at room temperature; protected from light. Subsequently, 30 μL of 1× Permeabilization buffer was added prior to centrifuging the cells and discarding the supernatant. Stained cells were resuspended in 30 μL of flow cytometry staining buffer (PBS+0.5% BSA) and analyzed using an Intellicyt Ique Plus flow cytometer.
Table B-1 lists the maximum observed degradation of the IKZF1 protein and IKZF2 protein as measured in the Human Regulatory Cell T Degradation assay. The results in Table B-1 were rounded to two digits. In the Human Regulatory T Cell Degradation assay, a value of 100% indicated no detectable protein remaining or complete degradation of the protein; and a value of 0% indicated no detectable degradation of the protein by the test compound.

Experiment [2] has as its target T1, IKZF2 Helios. The experiment can be described thus: Human Regulatory T Cell Reprogramming Assay (IKZF2 Helios). The format is cell-based. Details: T cells were isolated from fresh healthy leukopaks; endogenous in cells; host or cells: FACS-sorted primary human CD4+ CD127low CD25+ Treg cells from healthy leukopaks. The note with it: CD4+ CD127low CD25+ Treg cells, 12-13 days; for DC50: concentration reducing protein level by 50% vs DMSO; for Dmax: Regulatory T cell, human, read-out: Maximum Observed Degradation IKZF2 Helios. The protocol: Human CD4^+ T cells were isolated from fresh healthy leukopaks (Stemcell Technologies) using the RosetteSep Human CD4^+ T cell enrichment cocktail (Stemcell Technologies) and Ficoll density gradient centrifugation. Leukopaks were diluted with an equal volume of phosphate-buffered saline (PBS [Gibco]) supplemented with 2% fetal bovine serum (FBS, VWR Lifescience) and incubated with RosetteSep Human CD4^+ T cell enrichment cocktail for 20 minutes before layering on Ficoll-Paque Plus solution (GE Health Care). The cell-rich interface layer was harvested and washed twice with PBS supplemented with 2% FBS. Regulatory T cells were then isolated manually using the EasySep Human CD4 CD1271WCD25^+ Regulatory T cell isolation kit (Stemcell Technologies) according to the manufacturer's instructions. Cells were rested overnight in Roswell Park Memorial Institute (RPMI) 1640 media (Gibco) supplemented with 10% FBS, Pen/Strep (Gibco), MEM-NEAA (Gibco), and sodium pyruvate (Gibco) in a humidified incubator (37° C., 5% CO2). Cells were then stained for CD4 (clone: RPA-T4, Biolegend), CD25 (clone: 2A3, BD Biosciences), and CD127 (clone: hIL-7R-M21, BD Biosciences). CD4^+ CD127^lowCD25^+ cells were sorted on a BD FACS Aria Fusion sorter to a purity of 95% or greater. Sorted cells were immediately used or cryopreserved for downstream assays.
Fresh or cryopreserved FACS-sorted CD4^+ CD127^lowCD25^+ Treg cells were cultured at 25,000-50,000 cells/well of 96-well round bottom plates in RPMI 1640 media (Gibco) supplemented with 10% FBS, Pen/Strep (Gibco), MEM-NEAA (Gibco), and sodium pyruvate (Gibco). Cells were stimulated with Treg Xpander beads (Thermo Fisher) at cells-to-beads ratio of 1:4 in the presence of 500 U/mL recombinant human IL-2 (Proleukin). Compounds were added at titrated doses and cells were incubated at 37° C., 5% CO2 for 12-13 days. Recombinant human IL-2 and compound were replenished every 2-3 days during the entire culture duration. On day 12 or 13, cells were restimulated with phorbol 12-myristate 13-acetate (PMA) and ionomycin in the presence of the protein transport inhibitors brefeldin A and monensin (eBioscience Cell Stimulation Cocktail plus protein transport inhibitors, 500×, Catalog number 00-4975-93) before proceeding with flow cytometry staining and analysis.
For flow cytometry staining, cells were washed twice with flow cytometry staining buffer (Thermo Fisher) and incubated in Human Tru-stain Fc block (Biolegend) for 10 minutes before adding eFluor780 viability dye (Thermo Fisher) and surface marker antibody cocktail for 30 minutes at 4° C. Cells were then fixed and permeabilized by incubation with FoxP3 transcription factor staining buffer (Thermo Fisher) for 30 minutes at 4° C. as per the kit manufacturer's instructions. Cells were washed twice with the Perm/Wash buffer supplied in the kit as per the manufacturer's instructions and incubated overnight at 4° C. with an intracellular antibody cocktail comprised of antibodies specific for the transcription factors shown in Table C. Cells were washed twice with Perm/Wash buffer and resuspended in flow cytometry staining buffer (Thermo Fisher) prior to acquisition. Sample acquisition and analysis was performed using a BD LSRFortessa (BD Biosciences) flow cytometer. Single stain controls for each fluorochrome were prepared using UltraComp eBead Compensation Beads (Thermo Fisher). Data were analyzed using FlowJo version 10 and GraphPad Prism Software.
Table C-1 lists the maximum observed degradation of the IKZF2 protein and IKZF4 protein as measured in the Human Regulatory T Cell Reprogramming assay. The results in Table C-1 were rounded to two digits. In the Human Regulatory T Cell Reprogramming assay, a value of 100% indicated no detectable protein remaining or complete degradation of the protein; and a value of 0% indicated no detectable degradation of the protein by the test compound.

Each structure is given as a SMILES string.

T1 sequence (Q9UKS7 whole entry): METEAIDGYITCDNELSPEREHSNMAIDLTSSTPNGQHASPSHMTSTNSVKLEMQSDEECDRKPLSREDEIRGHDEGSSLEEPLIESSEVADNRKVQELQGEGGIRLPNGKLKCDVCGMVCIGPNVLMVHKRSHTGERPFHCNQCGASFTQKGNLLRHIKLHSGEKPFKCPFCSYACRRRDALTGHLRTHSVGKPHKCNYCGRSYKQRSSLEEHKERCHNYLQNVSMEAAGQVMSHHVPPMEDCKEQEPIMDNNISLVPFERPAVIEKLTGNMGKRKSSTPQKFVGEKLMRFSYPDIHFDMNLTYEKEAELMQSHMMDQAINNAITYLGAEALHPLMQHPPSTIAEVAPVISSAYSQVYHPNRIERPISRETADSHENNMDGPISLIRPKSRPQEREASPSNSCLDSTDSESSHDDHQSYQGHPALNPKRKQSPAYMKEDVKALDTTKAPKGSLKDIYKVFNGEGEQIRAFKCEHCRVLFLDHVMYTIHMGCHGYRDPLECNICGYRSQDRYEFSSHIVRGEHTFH
T1 sequence (Q96SW2 whole entry): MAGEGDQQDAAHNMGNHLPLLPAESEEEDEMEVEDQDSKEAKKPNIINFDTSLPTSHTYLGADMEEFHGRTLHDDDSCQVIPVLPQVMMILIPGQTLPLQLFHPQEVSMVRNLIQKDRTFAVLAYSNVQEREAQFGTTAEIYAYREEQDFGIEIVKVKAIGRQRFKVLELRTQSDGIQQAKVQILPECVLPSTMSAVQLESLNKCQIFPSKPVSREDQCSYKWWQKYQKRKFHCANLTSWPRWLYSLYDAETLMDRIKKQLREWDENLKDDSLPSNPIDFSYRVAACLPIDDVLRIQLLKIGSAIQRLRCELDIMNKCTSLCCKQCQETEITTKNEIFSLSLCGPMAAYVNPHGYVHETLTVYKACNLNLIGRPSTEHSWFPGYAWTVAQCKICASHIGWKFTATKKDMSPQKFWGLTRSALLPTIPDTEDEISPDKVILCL
T1 sequence (Q16531 whole entry partner): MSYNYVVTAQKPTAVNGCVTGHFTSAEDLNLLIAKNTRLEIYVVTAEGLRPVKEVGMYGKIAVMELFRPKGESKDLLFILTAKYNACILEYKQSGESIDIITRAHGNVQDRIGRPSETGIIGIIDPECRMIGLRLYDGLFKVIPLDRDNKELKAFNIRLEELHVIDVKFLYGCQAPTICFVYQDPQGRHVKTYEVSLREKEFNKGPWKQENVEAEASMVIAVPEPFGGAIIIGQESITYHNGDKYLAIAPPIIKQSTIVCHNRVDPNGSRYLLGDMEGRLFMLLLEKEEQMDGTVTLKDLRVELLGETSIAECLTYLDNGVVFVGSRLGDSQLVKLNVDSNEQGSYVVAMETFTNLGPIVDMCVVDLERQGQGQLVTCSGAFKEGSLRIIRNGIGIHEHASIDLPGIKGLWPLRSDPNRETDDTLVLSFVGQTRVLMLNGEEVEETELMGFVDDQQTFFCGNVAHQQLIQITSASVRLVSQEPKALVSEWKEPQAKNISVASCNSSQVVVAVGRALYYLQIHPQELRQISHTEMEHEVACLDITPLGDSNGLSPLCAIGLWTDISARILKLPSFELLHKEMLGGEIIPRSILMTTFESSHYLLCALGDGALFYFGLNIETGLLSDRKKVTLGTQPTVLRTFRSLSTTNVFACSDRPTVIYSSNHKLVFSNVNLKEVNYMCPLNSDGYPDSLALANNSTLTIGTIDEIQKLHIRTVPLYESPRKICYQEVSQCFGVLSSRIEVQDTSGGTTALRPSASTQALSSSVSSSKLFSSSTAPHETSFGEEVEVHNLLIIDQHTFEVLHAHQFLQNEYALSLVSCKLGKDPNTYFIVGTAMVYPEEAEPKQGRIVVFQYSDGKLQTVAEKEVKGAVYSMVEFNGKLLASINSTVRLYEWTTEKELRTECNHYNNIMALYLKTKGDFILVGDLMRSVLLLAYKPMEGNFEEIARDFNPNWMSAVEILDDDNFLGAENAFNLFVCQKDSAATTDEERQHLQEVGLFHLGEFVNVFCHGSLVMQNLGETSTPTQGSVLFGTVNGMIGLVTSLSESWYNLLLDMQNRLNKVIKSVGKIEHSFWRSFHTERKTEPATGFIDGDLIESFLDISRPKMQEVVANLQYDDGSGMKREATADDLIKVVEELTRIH

As for `O=C1CCC(N2Cc3c(ccc(-c4cc(CN5CC(c6ccccc6)C5)ccn4)c3F)C2=O)C(=O)N1` (stereo not drawn) [Comparative Compound A, 3-(4-fluoro-1-oxo-5-(4-((3-phenylazetidin-1-yl)methyl)pyridin-2-yl)isoindolin-2-yl) piperidine-2,6-dione], at IKZF2 Helios [1], the Dmax amounted to 101% and the DC50 turned out to be 2.9 nM. Further, at IKZF2 Helios [2], the DC50 is 2.2 nM and the Dmax is 92%.

Turning to `Nc1nc(-c2ccc3c(c2)CN(C2CCC(=O)NC2=O)C3=O)ccc1CN1CC2(CCC2)C1` (stereo not drawn) [Comparative Compound B, 3-(5-(5-((2-azaspiro[3.3]heptan-2-yl)methyl)-6-aminopyridin-2-yl)-1-oxoisoindolin-2-yl) piperidine-2,6-dione], at IKZF2 Helios [1], the Dmax was found to be 97% and the DC50 came out at 11 nM. Also, at IKZF2 Helios [2], the DC50 stood at 25 nM and the Dmax is 90%.

Take `Nc1nc(-c2ccc3c(c2F)CN(C2CCC(=O)NC2=O)C3=O)ccc1CN1CC2(CCCOC2)C1` (stereo not drawn) [Example 1, 3-(5-(5-((6-oxa-2-azaspiro[3.5]nonan-2-yl)methyl)-6-aminopyridin-2-yl)-4-fluoro-1-oxoisoindolin-2-yl) piperidine-2,6-dione]: at IKZF2 Helios [1], the Dmax turned out to be 100% and the DC50 came to 10 nM. For the same molecule, on IKZF2 Helios [2], the DC50 amounted to 38 nM and the Dmax stood at 85%.
